# Substitutions are numbered along the chain they refer to.
# Assays:
# T. gondii TgMAPKL1 L162Q = test: T. gondii proliferation inhibition, remaining host cell nuclei (DAPI), TgMAPKL1 L162Q strain; assay type: cell-based, Toxoplasma gondii; details: for EC50: read-out: TgMAPKL1 L162Q EC50 (95% CI), remaining host cell nuclei, 5 days
# T. gondii TgMAPKL1 S191Y = details: cited from earlier work
# [1] = system: T. gondii TgCDPK1 G128M TgMAPKL1 L162Q; test: T. gondii proliferation inhibition, remaining host cell nuclei (DAPI), double mutant G128M/L162Q; assay type: cell-based, Toxoplasma gondii; details: for EC50: read-out: TgCDPK1 G128M TgMAPKL1 L162Q EC50 (95% CI), double mutant, remaining host cell nuclei, 5 days
# T. gondii TgCDPK1 G128M = test: T. gondii proliferation inhibition, remaining host cell nuclei (DAPI), TgCDPK1 G128M strain; assay type: cell-based, Toxoplasma gondii
# T. gondii parent strain = test: T. gondii proliferation inhibition, remaining host cell nuclei (DAPI), parent strain; assay type: cell-based, Toxoplasma gondii; details: read-out: parent EC50 (95% CI), 5 days
# [2] = system: T. gondii TgMAPKL1 parental strain (RH, β-galactosidase transgene); test: T. gondii proliferation inhibition assay, β-galactosidase readout, parent strain; assay type: cell-based, Toxoplasma gondii; details: read-out: TgMAPKL1 Parental EC50 (95% CI), β-galactosidase activity, 72 h
# T. gondii TgCDPK1 G128T = test: T. gondii proliferation inhibition, remaining host cell nuclei (DAPI), TgCDPK1 G128T strain; assay type: cell-based, Toxoplasma gondii; details: read-out: TgCDPK1 G128T EC50 (95% CI), 5 days
# [3] = system: T. gondii with a L162Q substitution in TgMAPKL1; test: T. gondii proliferation inhibition assay, β-galactosidase readout, TgMAPKL1 L162Q strain; assay type: cell-based, Toxoplasma gondii; details: for EC50: read-out: TgMAPKL1 L162Q EC50 (95% CI), TgMAPKL1 L162Q strain, β-galactosidase activity, 72 h; for Fold Increase EC50: TgMAPKL1 L162Q vs parent strain, β-galactosidase assay
# TgCDPK1 128M = target: T1, TgCDPK1 128M (Toxoplasma gondii, UniProt Q9BJF5, G128M); test: TgCDPK1 enzyme inhibition assay (Kinase Glo), methionine gatekeeper mutant; assay type: biochemical; details: for Fold Increase IC50: TgCDPK1 128M vs 128G; for IC50: read-out: TgCDPK1 128M IC50, introduced methionine gatekeeper, 10 μM ATP
# T1 sequence (Q9BJF5 1-507 G128M): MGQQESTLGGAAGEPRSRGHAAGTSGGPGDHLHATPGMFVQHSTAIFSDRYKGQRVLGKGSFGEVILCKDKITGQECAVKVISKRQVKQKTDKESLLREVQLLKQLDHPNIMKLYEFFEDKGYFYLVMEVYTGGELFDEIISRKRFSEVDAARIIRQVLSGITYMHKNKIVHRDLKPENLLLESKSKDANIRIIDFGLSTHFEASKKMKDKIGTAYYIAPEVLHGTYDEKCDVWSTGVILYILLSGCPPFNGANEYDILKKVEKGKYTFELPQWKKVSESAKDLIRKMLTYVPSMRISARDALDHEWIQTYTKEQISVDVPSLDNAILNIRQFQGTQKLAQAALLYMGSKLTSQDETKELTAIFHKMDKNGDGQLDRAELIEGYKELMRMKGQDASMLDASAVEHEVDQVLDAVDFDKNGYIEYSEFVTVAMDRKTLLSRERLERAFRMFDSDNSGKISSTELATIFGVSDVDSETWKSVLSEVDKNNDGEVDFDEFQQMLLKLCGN
# TgCDPK1 128G = target: T2, TgCDPK1 128G (Toxoplasma gondii, UniProt Q9BJF5); test: TgCDPK1 enzyme inhibition assay (Kinase Glo), wild type glycine gatekeeper; assay type: biochemical; details: read-out: TgCDPK1 128G IC50, 10 μM ATP
# T2 sequence (Q9BJF5 1-507): T1 sequence (Q9BJF5 1-507 G128M) with M128G
# [4] = system: RH-strain T. gondii tachyzoites; test: Determination of mutagen concentration killing T. gondii tachyzoites; assay type: cell-based, Toxoplasma gondii; details: RH-strain tachyzoites expressing β-galactosidase and GFP
# T. gondii cell cycle = details: cited from earlier work
# [5] = vs parent strain, host cell nuclei assay
structure (smiles),measurement,setting,value
CC(C)(C)n1nc(Cc2cccc3ccccc23)c2c(N)ncnc21 [1-NM-PP1],EC50,T. gondii TgMAPKL1 L162Q,75 nM
same,TgMAPKL1 L162Q fold increase EC50,T. gondii TgMAPKL1 L162Q; [5],3.9 fold
same,resistance conferred by TgMAPKL1 S191Y substitution,T. gondii TgMAPKL1 S191Y,conferred resistance
same,TgCDPK1 G128M TgMAPKL1 L162Q fold increase EC50,"[1]; double mutant vs parent strain, host cell nuclei assay",89.5 fold
same,EC50,[1],1700 nM
same,TgCDPK1 G128M fold increase EC50,T. gondii TgCDPK1 G128M; [5],7.4 fold
same,EC50,T. gondii parent strain,19 nM
CCOc1ccc2cc(-c3nn(CC4CCN(C)CC4)c4ncnc(N)c34)ccc2c1 [BKI-1294],EC50,[2],22 nM
same,EC50,T. gondii TgMAPKL1 L162Q,450 nM
same,EC50,T. gondii TgCDPK1 G128T,1700 nM
same,EC50,[1],3200 nM
same,EC50,[3],66 nM
same,EC50,"T. gondii TgCDPK1 G128M; read-out: TgCDPK1 G128M EC50 (95% CI), remaining host cell nuclei, 5 days",1500 nM
same,EC50,T. gondii parent strain,230 nM
CCOc1ccc2cc(-c3nn(CC4CCN(C)CC4)c4ncnc(N)c34)ccc2n1 [BKI-1369],EC50,[2],38 nM
same,Fold Increase EC50,[3],3.20 fold
same,EC50,[3],120 nM
same,Fold Increase IC50,TgCDPK1 128M,2246 fold
same,IC50,TgCDPK1 128M,13700 nM
same,IC50,TgCDPK1 128G,6 nM
CCOc1ccc2cc(-c3nn(C(C)(C)C)c(N)c3C(N)=O)cnc2c1 [BKI-1517],EC50,[2],80 nM
same,EC50,[3],290 nM
CCOc1ccc2cc(-c3nn(C4CCOCC4)c(N)c3C(N)=O)ccc2n1 [BKI-1841],EC50,[2],140 nM
same,Fold Increase EC50,[3],2.90 fold
same,EC50,[3],400 nM
same,Fold Increase IC50,TgCDPK1 128M,585 fold
same,IC50,TgCDPK1 128M,17600 nM
same,IC50,TgCDPK1 128G,30 nM
"CCN(N=O)C(N)=O [ENU, N-ethyl-N-nitrosourea]",concentration required to kill 70% of a population of tachyzoites,[4],2 mM
Cc1cccc(-c2[nH]c(C(C)(C)C)nc2-c2ccc3c(c2)OCO3)n1 [SB505124],effect on T. gondii cell cycle,T. gondii cell cycle,arrested the T. gondii cell cycle

# — paper PMC12172689 (ACS infectious diseases, 2025)
